Laboratory results: publication PMC9804781, “Identification of a Novel Pseudo‐Natural Product Type IV IDO1 Inhibitor Chemotype” (Angewandte Chemie (International Ed. in English), 2022)

Biological target: T1, His-tagged IDO2 (Homo sapiens, UniProt Q6ZQW0)
T1 construct: His; purchased BPS Bioscience 72035 (kit)
T1 sequence (Q6ZQW0 1-407): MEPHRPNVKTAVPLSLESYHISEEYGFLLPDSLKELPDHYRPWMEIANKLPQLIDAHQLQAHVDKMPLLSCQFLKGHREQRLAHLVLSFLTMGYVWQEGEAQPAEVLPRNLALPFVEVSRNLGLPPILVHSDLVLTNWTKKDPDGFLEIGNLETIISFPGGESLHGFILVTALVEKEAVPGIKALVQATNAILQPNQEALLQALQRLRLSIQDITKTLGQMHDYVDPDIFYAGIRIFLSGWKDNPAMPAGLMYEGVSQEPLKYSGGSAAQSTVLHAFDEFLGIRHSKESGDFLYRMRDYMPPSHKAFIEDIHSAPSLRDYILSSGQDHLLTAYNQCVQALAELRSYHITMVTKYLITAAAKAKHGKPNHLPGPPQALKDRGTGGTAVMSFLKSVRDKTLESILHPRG
Experiment: IDO2 Activity Assay
Type: biochemical
Settings: 50 µM; 90 min + 120 min at 30 °C
Experimental: Inhibition of indoleamine 2,3-dioxygenase 2 (IDO2) was tested using the Universal IDO1/IDO2/TDO Inhibitor Screening Assay Kit (cat# 72035, BPS Bioscience, US). 10 µg His-tagged IDO2 in IDO2 Assay Buffer was incubated with Complete IDO2 Reaction Solution (1% (v/v) component 2 in component 1) and 50 µM Test Inhibitor (0.5% (v/v) DMSO) for 90 min at 30°C with slow shaking in the dark prior to initiation of the reaction by addition of 20% (v/v) IDO2 Substrate. Samples were incubated for 120 min at 30°C with slow shaking in the dark. Afterwards, absorbance at 321 nm was recorded on the Spark® Multimode Microplate Reader (Tecan, AT), all values were subtracted by the background and normalized to the DMSO control.

inhibition of IDO2 (result in words): did not inhibit
SMILES: CCOC(=O)C1=CC[C@](C(=O)OC)(c2cc3ccccc3n2C)N(S(=O)(=O)c2ccc(C)cc2)[C@@H]1C(=O)OC(C)(C)C [Compound 3d]
